Reference: US20230250109A1, “MACROCYCLIC ETHER CONTAINING INDOLE DERIVATIVES AS INHIBITORS OF MCL-1” (Janssen Pharmaceutica NV, priority 2020, published 2023)
Like-named read-outs stand apart in the source and are kept apart here.

Tests used:
[1] = target: Myeloid Cell Leukemia 1 (Mcl-1) (Homo sapiens, UniProt Q07820); assay: Terbium labeled Mcl-1 HTRF binding assay (displacement of Cy5-labeled BIM BH3 peptide); conditions: 25 pM Tb-Mcl-1, 8 nM Cy5 Bim peptide, Ki=IC50/(1+[L]/Kd), [L]=8 nM, Kd=10 nM, 60 min at room temperature, read-out: Tb-MCL1 Ki
Description: Terbium labeled Myeloid Cell Leukemia 1 (Mcl-1) homogeneous time-resolved fluorescence (HTRF) binding assay utilizing the BIM BH3 peptide (H2N—(C/Cy5Mal) WIAQELRRIGDEFN-OH) as the binding partner for Mcl-1.
This assay evaluated inhibition of the BH3 domain: Mcl-1 interaction by measuring the displacement of Cy5-labeled BIM BH3 peptide (H2N—(C/Cy5Mal) WIAQELRRIGDEFN-OH) in the HTRF assay format.
The following assay and stock buffers were prepared for use in the assay: (a) Stock buffer: 10 mM Tris-HCl, pH=7.5+150 mM NaCl, filtered, sterilized, and stored at 4° C.; and (b) 1× assay buffer, where the following ingredients were added fresh to stock buffer: 2 mM dithiothreitol (DTT), 0.0025% Tween-20, 0.1 mg/mL bovine serum albumin (BSA). The 1×Tb-Mcl-1+Cy5 Bim peptide solution was prepared by diluting the protein stock solution using the 1×assay buffer (b) to 25 pM Tb-Mcl-1 and 8 nM Cy5 Bim peptide.
Using the Acoustic ECHO, 100 nL of 100×test compound(s) were dispensed into individual wells of a white 384-well Perkin Elmer Proxiplate, for a final compound concentration of 1×and final DMSO concentration of 1%. Inhibitor control and neutral control (NC, 100 nL of 100% DMSO) were stamped into columns 23 and 24 of assay plate, respectively. Into each well of the plate was then dispensed 10 μL of the 1× Tb-Mcl-1+Cy5 Bim peptide solution. The plate was centrifuged with a cover plate at 1000 rpm for 1 minute, then incubated for 60 minutes at room temperature with plates covered. The TR-FRET signal was read on an BMG PHERAStar FSX MicroPlate Reader at room temperature using the HTRF optic module (HTRF: excitation: 337 nm, light source: laser, emission A: 665 nm, emission B: 620 nm, integration start: 60 μs, integration time: 400 μs).
The BMG PHERAStar FSX MicroPlate Reader was used to measure fluorescence intensity at two emission wavelengths—665 nm and 620 nm—and report relative fluorescence units (RFU) for both emissions, as well as a ratio of the emissions (665 nm/620 nm)*10,000. The RFU values were normalized to percent inhibition as follows:
35% inhibition=(((NC−IC)−(compound−IC))/(NC−IC))*100
where IC (inhibitor control, low signal)=mean signal of 1× Tb-MCl-1+Cy5 Bim peptide+ inhibitor control or 100% inhibition of Mcl-1; NC (neutral control, high signal)=mean signal 1× Tb-MCl-1+Cy5 Bim peptide with DMSO only or 0% inhibition An 11-point dose response curve was generated to determine IC50 values (using GenData) based on the following equation:
Y=Bottom+(Top−Bottom)/(1+10^((log IC50−X)*HillSlope))
where Y=% inhibition in the presence of X inhibitor concentration; Top=100% inhibition derived from the IC (mean signal of Mcl-1+ inhibitor control); Bottom=0% inhibition derived from the NC (mean signal of Mcl-1+ DMSO); Hillslope=Hill coefficient; and IC50=concentration of compound with 50% inhibition in relation to top/neutral control (NC).

[2] = test system: MOLP-8 human multiple myeloma cell line; assay: Caspase-Glo 3/7 apoptosis induction assay in MOLP-8 cells; assay type: cell-based; conditions: 2 hours at 37° C., caspase-3/7 luminescence, averaged over all runs on all batches, read-out: MOLP8 Caspase-Glo AC50
Description: MCL-1 is a regulator of apoptosis and is highly over-expressed in tumor cells that escape cell death. The assay evaluates the cellular potency of small-molecule compounds targeting regulators of the apoptosis pathway, primarily MCL-1, Bfl-1, Bcl-2, and other proteins of the Bcl-2 family. Protein-protein inhibitors disrupting the interaction of anti-apoptotic regulators with BH3-domain proteins initiate apoptosis.
The Caspase-Glo® 3/7 Assay is a luminescent assay that measures caspase-3 and -7 activities in purified enzyme preparations or cultures of adherent or suspension cells. The assay provides a proluminescent caspase-3/7 substrate, which contains the tetrapeptide sequence DEVD. This substrate is cleaved to release aminoluciferin, a substrate of luciferase used in the production of light. Addition of the single Caspase-Glo® 3/7 Reagent in an “add-mix-measure” format results in cell lysis, followed by caspase cleavage of the substrate and generation of a “glow-type” luminescent signal. This assay uses the MOLP-8 human multiple myeloma cell line, which is sensitive to MCL-1 inhibition.
• Perkin Elmer Envision • Multidrop 384 and small volume dispensing cassettes • Centrifuge • Countess automated cell counter • Countess counting chamber slides • Assay plate: ProxiPlate-384 Plus, White 384-shallow well Microplate • Sealing tape: Topseal A plus • T175 culture flask
Cell cultures were maintained between 0.2 and 2.0×10^6 cells/mL. The cells were harvested by collection in 50 mL conical tubes. The cells were then pelleted at 500 g for 5 mins before removing supernatant and resuspension in fresh pre-warmed culture medium. The cells were counted and diluted as needed.
The assay reagent was prepared by transferring the buffer solution to the substrate vial and mixing. The solution may be stored for up to 1 week at 4° C. with negligible loss of signal.
Compounds were delivered in assay-ready plates (Proxiplate) and stored at −20° C. Assays always include 1 reference compound plate containing reference compounds. The plates were spotted with 40 nL of compounds (0.5% DMSO final in cells; serial dilution; […] highest conc. 1/3 dilution, 10 doses, duplicates). The compounds were used at room temperature and 4 μL of pre-warmed media was added to all wells except column 2 and 23. The negative control was prepared by adding 1% DMSO in media. The positive control was prepared by adding the appropriate positive control compound in final concentration of […] in media. The plate was prepared by adding 4 μL negative control to column 23, 4 μL positive control to column 2 and 4 μL cell suspension to all wells in the plate. The plate with cells was then incubated at 37° C. for 2 hours. The assay signal reagent is the Caspase-Glo solution described above, and 8 μL was added to all wells. The plates were then sealed and measured after 30 minutes.
The activity of a test compound was calculated as percent change in apoptosis induction as follows: […]

Sequence of Myeloid Cell Leukemia 1 (Mcl-1) (Q07820 whole entry): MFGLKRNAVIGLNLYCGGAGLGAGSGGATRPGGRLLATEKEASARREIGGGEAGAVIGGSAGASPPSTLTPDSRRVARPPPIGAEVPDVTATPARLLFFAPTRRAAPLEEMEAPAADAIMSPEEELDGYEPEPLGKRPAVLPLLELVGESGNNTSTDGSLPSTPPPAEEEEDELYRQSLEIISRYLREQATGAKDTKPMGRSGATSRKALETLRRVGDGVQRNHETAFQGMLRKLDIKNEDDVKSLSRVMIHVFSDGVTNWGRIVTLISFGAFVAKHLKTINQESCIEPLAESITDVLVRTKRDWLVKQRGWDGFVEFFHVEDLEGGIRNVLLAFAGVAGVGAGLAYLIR

Row | Compound | Ki [1] [nM] | AC50 [2] [nM] | melting point [°C] | AC50 ([2]; Homo sapiens, MOLP-8, 2 h) [nM]
1 | Cc1c2c(nn1C)COCc1cc(n(C)n1)CCc1cc(c3ccccc3c1)OCCCc1c(C(=O)O)n(C)c3c-2c(Cl)ccc13 (single isomer, unassigned) [Compound 1] | 0.047 | 83.3 |  | 
2 | Cc1c2c(nn1C)COCc1cc(n(C)n1)CCc1cc(c3ccccc3c1)OCCCc1c(C(=O)O)n(C)c3c-2c(Cl)ccc13 (single isomer, unassigned) [Compound 2] | 0.444 | 954 |  | 
3 | Cc1c2c(nn1C)COCc1cc(n(C)n1)CSc1cc(c3ccccc3c1)OCCCc1c(C(=O)O)n(C)c3c-2c(Cl)ccc13 (single isomer, unassigned) [Compound 5] | 0.057 | 83.7 |  | 
4 | Cc1c2c(nn1C)COCc1cc(n(C)n1)CSc1cc(c3ccccc3c1)OCCCc1c(C(=O)O)n(C)c3c-2c(Cl)ccc13 (single isomer, unassigned) [Compound 6] | 11.7 | 6640 |  | 
5 | CCc1c2c(nn1C)COCc1cc(n(C)n1)CSc1cc(c3ccccc3c1)OCCCc1c(C(=O)O)n(C)c3c-2c(Cl)ccc13 (single isomer, unassigned) [Compound 7] | 0.055 | 83.7 | 269.16 | 
6 | CCc1c2c(nn1C)COCc1cc(n(C)n1)CSc1cc(c3ccccc3c1)OCCCc1c(C(=O)O)n(C)c3c-2c(Cl)ccc13 (single isomer, unassigned) [Compound 8] | 8.12 | 5380 | 264.21 | 
7 | Cc1c2c(nn1C)C(C)OCc1cc(n(C)n1)CSc1cc(c3ccccc3c1)OCCCc1c(C(=O)O)n(C)c3c-2c(Cl)ccc13 (single isomer, unassigned) [Compound 9] | 0.241 | 246 |  | 
8 | Cc1c2c(nn1C)C(C)OCc1cc(n(C)n1)CSc1cc(c3ccccc3c1)OCCCc1c(C(=O)O)n(C)c3c-2c(Cl)ccc13 (single isomer, unassigned) [Compound 10] | 19.8 | 14700 |  | 
9 | Cc1c2c(nn1C)C(C)OCc1cc(n(C)n1)CSc1cc(c3ccccc3c1)OCCCc1c(C(=O)O)n(C)c3c-2c(Cl)ccc13 (single isomer, unassigned) [Compound 11] | 33.1 | 18100 |  | 
10 | Cc1c2c(nn1C)C(C)OCc1cc(n(C)n1)CSc1cc(c3ccccc3c1)OCCCc1c(C(=O)O)n(C)c3c-2c(Cl)ccc13 (single isomer, unassigned) [Compound 12] | 0.036 | 59.4 |  | 
11 | Cc1c2c(nn1C)COCc1cc(n[nH]1)CSc1cc(c3ccccc3c1)OCCCc1c(C(=O)O)n(C)c3c-2c(Cl)ccc13 (single isomer, unassigned) [Compound 13] | 0.128 | 411 |  | 
12 | Cc1c2c(nn1C)COCc1cc(n[nH]1)CSc1cc(c3ccccc3c1)OCCCc1c(C(=O)O)n(C)c3c-2c(Cl)ccc13 (single isomer, unassigned) [Compound 14] | 21.6 | 18000 |  | 
13 | Cc1c2c(nn1C)COCc1cc(nn1CCN(C)C)CSc1cc(c3ccccc3c1)OCCCc1c(C(=O)O)n(C)c3c-2c(Cl)ccc13 (single isomer, unassigned) [Compound 15] | 0.111 |  |  | 388
14 | Cc1c2c(nn1C)COCc1cc(n(CCN(C)C)n1)CSc1cc(c3ccccc3c1)OCCCc1c(C(=O)O)n(C)c3c-2c(Cl)ccc13 (single isomer, unassigned) [Compound 16] | 0.072 |  |  | 185
15 | COCCOCCn1nc(C)c2c1COCc1cc(n(C)n1)CCc1cc(c3ccc(F)cc3c1)OCCCc1c(C(=O)O)n(C)c3c-2c(Cl)ccc13 (single isomer, unassigned) [Compound 17] | 0.025 | 7.4 |  | 
16 | COCCOCCn1nc2c(c1C)-c1c(Cl)ccc3c(c(C(=O)O)n(C)c13)CCCOc1cc(cc3cc(F)ccc13)CCc1cc(nn1C)COC2 (single isomer, unassigned) [Compound 18] | 0.02 | 17.6 |  | 
17 | COCCOCCn1nc(C)c2c1COCc1cc(n(C)n1)CCc1cc(c3ccc(F)cc3c1)OCCCc1c(C(=O)O)n(C)c3c-2c(Cl)ccc13 (single isomer, unassigned) [Compound 19] | 1.34 | 626 |  | 
18 | COCCOCCn1nc2c(c1C)-c1c(Cl)ccc3c(c(C(=O)O)n(C)c13)CCCOc1cc(cc3cc(F)ccc13)CCc1cc(nn1C)COC2 (single isomer, unassigned) [Compound 20] | 4.14 | 3450 |  | 
